Molecules are shown by their SMILES.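 Growth conditions: 96-well plates. Treatment: test compound, 48 hours, 5 concentrations. Analysis: linear interpolation between bracketing concentrations; unreached endpoints set to highest concentration. GI50 marks 50% less growth.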 Activity calls are given as the source filed them. Cut-off read from the data, not from the text of the source: active = GI50 up to about 1.1 µM and inactive = higher.

Experimental findings from ChEMBL document CHEMBL1201862, “PubChem BioAssay data set” (2004) are described below.

Among the test systems are MDA-MB-231; OVCAR-4; HT-29; U-251; RPMI-8226; HCT-15; NCI-H522; MDA-N; SF-295; UACC-62; IGROV-1; A549; NCI-H226; EKVX; OVCAR-3; KM12; SR; HL-60; SK-MEL-28; TK-10.
Common to all, as to experiment: NCI-60 cell line screen, 48 h

As for `O=C(O)CSSCC(=O)O`, the GI50 with MDA-MB-231 is > 100 µM (inactive); in the assay on OVCAR-4, > 100 µM (inactive); in the assay with HT-29, > 100 µM (inactive); in the assay with U-251, > 100 µM (inactive); with RPMI-8226 it was > 100 µM (inactive); in the assay on HCT-15, over 100 µM. Moreover, the GI50 in the assay on NCI-H522, with MDA-N, in the assay on SF-295, in the assay with UACC-62, in the assay with IGROV-1 and in the assay on A549 was > 100 µM (inactive) throughout. Besides, the GI50 with NCI-H226, with EKVX, in the assay with OVCAR-3, with KM12, in the assay with SR and in the assay on HL-60 was > 100 µM (inactive) in each case. Moreover, the GI50 in the assay with SK-MEL-28 and in the assay on TK-10 was > 100 µM (inactive) throughout.

Turning to `CS(=O)(=O)N1CC(CCl)c2ccc([N+](=O)[O-])cc21` (centres undefined), the GI50 was > 100 µM (inactive) with MDA-MB-231; > 100 µM (inactive) with OVCAR-4; > 100 µM (inactive) in the assay on HT-29; 58.6 µM (inactive) with U-251; > 100 µM (inactive) in the assay on RPMI-8226; over 100 µM with HCT-15. Besides, the GI50 in the assay on NCI-H522, in the assay on MDA-N, in the assay with SF-295, in the assay with UACC-62, in the assay with IGROV-1 and with A549 was > 100 µM (inactive) in each case. The GI50 in the assay with NCI-H226, in the assay with EKVX, in the assay on OVCAR-3, with KM12, with SR and in the assay on HL-60 was > 100 µM (inactive) throughout. For the same molecule, the GI50 in the assay on SK-MEL-28 and with TK-10 was > 100 µM (inactive) each time.

Take `CC1CNC(NS(=O)(=O)c2cc(C(=O)Nc3ccccc3)c(Cl)cc2S)=NN1` (centres undefined): the GI50 was > 100 µM (inactive) with MDA-MB-231; 67.3 µM (inactive) with OVCAR-4; 38.8 µM (inactive) with HT-29; 39.1 µM (inactive) in the assay with U-251; 31.4 µM (inactive) in the assay on RPMI-8226; 33.8 µM in the assay on HCT-15. Moreover, the GI50 in the assay on NCI-H522 is 23.4 µM (inactive); in the assay with MDA-N, 24.9 µM (inactive); with SF-295 it was 38.5 µM (inactive); in the assay on UACC-62, 43.2 µM (inactive); in the assay on IGROV-1, 6.24 µM (inactive); in the assay on A549, 33.7 µM (inactive). The GI50 was 44.7 µM (inactive) with NCI-H226; > 100 µM (inactive) with EKVX; 41.4 µM (inactive) with OVCAR-3; 33.3 µM (inactive) with KM12; 41.8 µM (inactive) in the assay with SR; 66.2 µM (inactive) in the assay on HL-60. The GI50 was 45.3 µM (inactive) in the assay with SK-MEL-28 and > 100 µM (inactive) in the assay with TK-10.

`COc1ccc(/C=N/N2C(=O)c3c(N)c(C#N)c(-c4ccccc4)c(-c4ccccc4)c3C2=O)cc1`: the GI50 is > 100 µM (inactive) in the assay with MDA-MB-231; 99.8 µM (inactive) with OVCAR-4; 98.6 µM (inactive) in the assay on U-251; > 100 µM (inactive) with RPMI-8226; over 100 µM with HCT-15; > 100 µM (inactive) in the assay with NCI-H522. The GI50 was > 100 µM (inactive) in the assay on MDA-N; 70.8 µM (inactive) in the assay on SF-295; > 100 µM (inactive) with UACC-62; > 100 µM (inactive) in the assay with IGROV-1; > 100 µM (inactive) in the assay with A549; > 100 µM (inactive) in the assay with NCI-H226. Moreover, the GI50 with EKVX, in the assay on OVCAR-3, in the assay with KM12, with SR, in the assay with HL-60 and with SK-MEL-28 was > 100 µM (inactive) each time. In addition, the GI50 in the assay with TK-10 is 42.4 µM (inactive).

For `COc1ccc(/C=N/NC(=O)C2=C(N)N(c3ccccc3)C(=C(C#N)C#N)S2)cc1`, the GI50 is 79.6 µM (inactive) in the assay on MDA-MB-231; > 100 µM (inactive) in the assay with OVCAR-4; > 100 µM (inactive) with HT-29; 63.8 µM (inactive) in the assay on U-251; > 100 µM (inactive) with RPMI-8226; over 100 µM in the assay with HCT-15. Also, the GI50 was > 100 µM (inactive) with NCI-H522; > 100 µM (inactive) with MDA-N; 45 µM (inactive) in the assay on SF-295; > 100 µM (inactive) in the assay with UACC-62; > 100 µM (inactive) in the assay on IGROV-1; > 100 µM (inactive) in the assay on A549. Also, the GI50 with NCI-H226 is > 100 µM (inactive); in the assay with EKVX, > 100 µM (inactive); with OVCAR-3, 60.4 µM (inactive); with KM12, > 100 µM (inactive); in the assay on SR, > 100 µM (inactive); in the assay on HL-60, > 100 µM (inactive). The GI50 in the assay with SK-MEL-28 and in the assay with TK-10 was > 100 µM (inactive) in each case.

As for `CCOC(=O)C(CCN1CCC2(CC1)C(=O)N(C)CN2c1ccccc1)C(=O)OCC`, the GI50 was > 100 µM (inactive) in the assay with MDA-MB-231; > 100 µM (inactive) in the assay with OVCAR-4; > 100 µM (inactive) in the assay on HT-29; > 100 µM (inactive) in the assay on U-251; > 100 µM (inactive) with RPMI-8226; over 100 µM with HCT-15. The GI50 with NCI-H522, with MDA-N, with SF-295, in the assay on UACC-62, in the assay on IGROV-1 and with A549 was > 100 µM (inactive) each time. The GI50 in the assay on NCI-H226, in the assay with EKVX, in the assay with OVCAR-3, in the assay with KM12, in the assay on SR and in the assay with HL-60 was > 100 µM (inactive) each time. Moreover, the GI50 in the assay on SK-MEL-28 and in the assay with TK-10 was > 100 µM (inactive) throughout.

In the case of `COc1ccc2c(c1)c1c3c(ccc4ncn2c43)N(CCN(C)C)CCN=1`, the GI50 with MDA-MB-231 is 0.476 µM (active); with OVCAR-4, 0.309 µM (active); in the assay with HT-29, 0.135 µM (active); with U-251 it was 0.363 µM (active); in the assay with RPMI-8226, 1.48 µM (inactive); in the assay with HCT-15, 0.303 µM. Also, the GI50 with NCI-H522 was 0.19 µM (active); in the assay on MDA-N, 0.438 µM (active); in the assay with SF-295, 0.494 µM (active); with UACC-62 it was 1.23 µM (inactive); with IGROV-1, 1.31 µM (inactive); in the assay on A549, 0.359 µM (active). Also, the GI50 was 1.14 µM (inactive) with NCI-H226; 0.586 µM (active) with EKVX; 0.538 µM (active) in the assay with OVCAR-3; 0.374 µM (active) in the assay on KM12; 0.0302 µM (active) in the assay on SR; 0.333 µM (active) in the assay with HL-60. For the same molecule, the GI50 in the assay on SK-MEL-28 is 0.897 µM (active); in the assay with TK-10, 1.49 µM (inactive).

Regarding `CC(O)CC(=O)CO[C@H]1[C@H](O)[C@@H](O)[C@@H](O)[C@@H]2NC(=O)c3c(cc4c(c3O)OCO4)[C@H]21` (some centres undefined), the GI50 is 0.054 µM (active) in the assay on MDA-MB-231; 0.0483 µM (active) with OVCAR-4; 0.0258 µM (active) in the assay on HT-29; < 0.015 µM (active) in the assay with U-251; 0.0226 µM (active) with RPMI-8226; 0.256 µM in the assay with HCT-15. In addition, the GI50 in the assay with NCI-H522 is 0.0242 µM (active); in the assay on MDA-N, 0.0366 µM (active); with SF-295 it was 0.0299 µM (active); with UACC-62, 0.0541 µM (active); with IGROV-1, < 0.0207 µM (active); with A549, 0.042 µM (active). Also, the GI50 in the assay with NCI-H226 is 0.0499 µM (active); in the assay on EKVX it was 0.0266 µM (active); in the assay with OVCAR-3 it was 0.0457 µM (active); in the assay on KM12, 0.0316 µM (active); with SR, 0.0335 µM (active); in the assay with HL-60, 0.0386 µM (active). Besides, the GI50 in the assay with SK-MEL-28 is < 0.0201 µM (active); in the assay on TK-10, 0.0353 µM (active).

Turning to `C=C1C(=O)OC2C3C(=C)[C@@H](OC(C)=O)CC3C(C)=CC(OC(=O)C(C)(O)C(C)OC(C)=O)[C@@H]12` (some centres undefined), the GI50 was 19.8 µM (inactive) with MDA-MB-231; 7.28 µM (inactive) in the assay on OVCAR-4; 5.09 µM (inactive) with HT-29; 16.8 µM (inactive) in the assay on U-251; 7.18 µM (inactive) with RPMI-8226; 10.4 µM in the assay on HCT-15. Further, the GI50 with NCI-H522 was 1.52 µM (inactive); with MDA-N, 5.82 µM (inactive); in the assay on SF-295 it was 48.2 µM (inactive); in the assay on UACC-62, 10.6 µM (inactive); in the assay with IGROV-1 it was 7.36 µM (inactive); with A549, 26.2 µM (inactive). Moreover, the GI50 is 21.6 µM (inactive) in the assay with NCI-H226; 16.1 µM (inactive) in the assay with EKVX; 9.82 µM (inactive) in the assay with OVCAR-3; 15.2 µM (inactive) with KM12; 7.41 µM (inactive) in the assay with SR; 2.55 µM (inactive) in the assay on HL-60. Further, the GI50 is 14 µM (inactive) with SK-MEL-28 and 3.99 µM (inactive) in the assay on TK-10.

For the molecule `O=C1NC(Cc2c[nH]c3ccccc23)C(=O)N2C(C3CCCCC3)c3[nH]c4ccccc4c3C[C@@H]12` (some centres undefined), the GI50 in the assay on MDA-MB-231 was 15.1 µM (inactive); with OVCAR-4, 11.1 µM (inactive); in the assay on HT-29, 14.9 µM (inactive); with U-251 it was 11.4 µM (inactive); in the assay on RPMI-8226, 9.02 µM (inactive); in the assay with HCT-15, 12.4 µM. In addition, the GI50 with NCI-H522 is 7.98 µM (inactive); in the assay with MDA-N, 11.1 µM (inactive); with SF-295, 24 µM (inactive); in the assay on UACC-62 it was 15.3 µM (inactive); in the assay on IGROV-1, 13.8 µM (inactive); in the assay on A549, 10.9 µM (inactive). The GI50 is 24.2 µM (inactive) in the assay with NCI-H226; 16 µM (inactive) in the assay with EKVX; 2.38 µM (inactive) in the assay on OVCAR-3; 11.8 µM (inactive) in the assay on KM12; 7.45 µM (inactive) in the assay with SR; 13.4 µM (inactive) in the assay on HL-60. Further, the GI50 in the assay on SK-MEL-28 is 16.4 µM (inactive); with TK-10, 8.15 µM (inactive).
